Here are results for four molecules from patent US6600069B2, “Benzene tricarboxylic acid derivatives as insulin receptor activators” (Telik, Inc., priority 2000, dated 2003).

pEC50: −log10 of the molar value. Read-outs that look alike come from different tables or passages of the source.

Assay [1] concerns the target T1, β-kinase domain of the human insulin receptor (CKD) (Homo sapiens, UniProt P06213).
T1 construct: The complete β-kinase domain of the human insulin receptor (CKD); made in house
In words: 32P-cytoplasmic kinase domain (CKD) autophosphorylation assay. It is filed as biochemical. As to conditions: 32P incorporated into CKD band, 10 minutes at room temperature, 50 μM ATP; test concentration not given. The method, then: ^32P-cytoplasmic Kinase Domain (CKD) Autophosphorylation Assay
The complete β-kinase domain of the human insulin receptor (CKD) was expressed in, and purified from, baculovirus. CKD (4.0 μg/ml), in a solution of 29 mM HEPES (pH 7.6), 0.05% Triton X-100, 10 mM MgCl2, 2 mM MnCl2 (50 μl final volume), was combined with 50 μM ATP, and 5 μCi ^32P-ATP (3000 Ci/mmol.). A test compound, or the vehicle (DMSO), was added to a final DMSO concentration of 1%. The mixture was incubated for 10 minutes at room temperature. The reaction was terminated by the addition of 10 μl of 200 mM EDTA. A 30 μl volume was removed, mixed with 5 μl of 6× Laemmeli sodium dodecyl sulfate (SDS) treatment buffer, and heated to 95° C. for 5 minutes. A 20 μl aliquot was then run on an SDS-PAGE gel. The radioactivity incorporated into the CKD band is quantified by phosphorimaging of the gel, or scintillation counting of the excised bands.
The potency of a compound for increasing phosphorylation is expressed as a percentage of the vehicle level.

Assay [2] relates to 3T3 L1 fibroblasts differentiated to adipocytes. In words: Glucose transport activity (14C-2-deoxy-D-glucose uptake). It counts as cell-based. Particulars: Mus musculus. The method, then:
Glucose Transport Activity
3T3 L1 fibroblasts (ATCC) were grown in Dulbecco's modified Eagie's medium (DMEM) with 10% fetal bovine serum (FBS). The cells were plated at a density of 3×10^4 cells/well in 24-well plates. Two days after confluence was reached, the cells were treated for 3 days with […] isobutylmethylxanthine (IBMX), 1 μM dexamethasone, and 1.7 μM insulin. The cells were then transferred to DMEM with 10% fresh bovine serum with 1.7 μM insulin for 2 more days. The cells were maintained in DMEM with 10% FBS for an additional 4 days. Finally the cells were serum starved overnight in 0.1% bovine serum albumin (BSA) in DMEM prior to exposure to the test compounds.
The following day, the medium was replaced with 150 mM NaCl, 1.7 mM KCl, 0.9 mM CaCl2, K2HPO4 (pH 7.4) to which was added either the experimental compounds, or their vehicle (DMSO). Insulin or its vehicle (0.01% BSA) was diluted in the assay buffer (containing test compound or vehicle, respectively) to a final concentration of 5.6 nM. After incubation for 30 min at 37° C., 0.5 μCi/ml of ^14C-2-deoxy-D-glucose was added, and the incubation was continued for additional 30 min at 37° C. The cells were then washed 3 times with ice-cold PBS/20 mM glucose and lysed in 250 μl of lysis buffer (50 mM HEPES pH 7.6, 1% Triton X-100) for 30 min at room temperature. Radioactivity in the lysate was quantified by scintillation counting.
Once ^14C-2-deoxy-D-glucose is transported into the cell it is not released. Glucose transport is, therefore, proportional to the amount of radioactivity in the lysate. The concentration of compound necessary to produce an increase in glucose transport greater than the sum of the standard deviation of the vehicle control plus the largest standard deviation of a test sample (generally 150% of the vehicle control) was recorded as the EC (effective concentration) The results of the glucose transport activity assay are shown in Table 2,

Setting [3] is: 3T3-L1, concentration producing increase in glucose transport generally 150% of the vehicle control, insulin 5.6 nM, read-out: Glucose Transport EC (effective concentration).

T1 sequence (P06213 980-1382 limits assumed): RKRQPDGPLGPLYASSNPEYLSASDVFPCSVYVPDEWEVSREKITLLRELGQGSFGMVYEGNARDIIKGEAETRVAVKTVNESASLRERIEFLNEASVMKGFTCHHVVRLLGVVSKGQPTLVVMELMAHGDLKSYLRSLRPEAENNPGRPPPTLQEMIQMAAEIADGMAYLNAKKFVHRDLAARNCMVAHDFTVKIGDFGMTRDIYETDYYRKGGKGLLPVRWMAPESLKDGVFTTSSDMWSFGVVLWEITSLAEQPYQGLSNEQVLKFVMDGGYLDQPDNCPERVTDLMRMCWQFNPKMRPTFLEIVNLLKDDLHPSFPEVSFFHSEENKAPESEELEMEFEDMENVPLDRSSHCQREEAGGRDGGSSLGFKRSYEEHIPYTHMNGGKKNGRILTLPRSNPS

Turning to `O=C(O)c1ccc(NC(=O)c2cc(C(=O)Nc3ccc(C(=O)O)cc3)cc(C(=O)Nc3ccc(C(=O)O)cc3)c2)cc1` [Compound 1, 4-({3,5-bis[N-(4-carboxyphenyl)carbamoyl]phenyl}carbonylamino)benzoic acid], the “CKD phosphorylation (percentage of the vehicle level)” value in assay [1] amounted to 103.7%. Moreover, the pEC50 in assay [2] (setting [3]) was 5.49.
For the molecule `O=C(Nc1cccc(S(=O)(=O)O)c1)c1cc(C(=O)Nc2cccc(S(=O)(=O)O)c2)cc(C(=O)Nc2cccc(S(=O)(=O)O)c2)c1` [Compound 10, 3-({3,5-bis[N-(3-sulfophenyl)carbamoyl]phenyl}carbonylamino)benzenesulfonic acid], the “CKD phosphorylation (percentage of the vehicle level)” value in assay [1] is listed as 92.0%. The pEC50 in assay [2] (setting [3]) is 5.49.
The matching figures for `O=C(Nc1cccc(C(=O)O)c1C(=O)O)c1cc(C(=O)Nc2cccc(C(=O)O)c2C(=O)O)cc(C(=O)Nc2cccc(C(=O)O)c2C(=O)O)c1` [Compound 22, 3-({3,5-bis[N-(2,3-dicarboxyphenyl)carbamoyl]phenyl}carbonylamino)benzene-1,2-dicarboxylic acid]: 118.1% and 5.49.
On to `O=C(Nc1cccc2ccc(S(=O)(=O)[O-])cc12)c1cc(C(=O)Nc2cccc3ccc(S(=O)(=O)[O-])cc23)cc(C(=O)Nc2cccc3ccc(S(=O)(=O)[O-])cc23)c1.[Na+].[Na+].[Na+]` [Compound 4, 8-({3,5-bis[N-(7-sulfonaphthyl)carbamoyl]phenyl}carbonylamino)naphthalene-2-sulfonic acid], for which the “CKD phosphorylation (percentage of the vehicle level)” value in assay [1] worked out at 134.9%. Moreover, the pEC50 in assay [2] (3T3-L1, read-out: Glucose Transport EC (effective concentration)) was 5.49.
